Measurements published in paper PMC4417150, “Selective inhibition of miR-21 by phage display screened peptide” (Nucleic Acids Research, 2015).
Peptide text beside a SMILES is read from it.

Tested on: MCF-7 cells
Test: Quantitative uptake of FAM-conjugated peptide (flow cytometry)
Type: in vitro ADME
Conditions: FAM-conjugated peptides 1, 5, 10 µM; MCF-7, serum free media, 6 h, 37°C; FACS; duplicate
Protocol: Carboxyfluorescein (FAM)-conjugated peptide was added onto MCF-7 cells with ∼80% confluence in serum free media. Cells were then incubated at 37°C humidified incubator (5% CO2) for 6 h. Cells were washed twice with ice cold PBS containing 1mg/ml heparin, followed by one wash with trypan blue and two washes with ice cold PBS. Cells were trypsinised, followed by centrifugation at 700 g for 5 min at 4°C. Cell pellet was resuspended in ice cold PBS and FACS analysis was done in BD Accuri instrument. 10000 counts per sample was analyzed using BD Accuri C6 software.
As the peptide contains three proline residues, we reasoned that the peptide may have cell penetrating properties. To check the cell penetrating property, we FAM conjugated the peptides and monitored their uptake by flow cytometry.

Molecule	cell penetrating potential (uptake)
CC(C)C[C@H](NC(=O)[C@H](C)N)C(=O)N[C@@H](Cc1c[nH]c2ccccc12)C(=O)N1CCC[C@H]1C(=O)N1CCC[C@H]1C(=O)N[C@@H](CC(N)=O)C(=O)N[C@@H](CC(C)C)C(=O)N[C@@H](Cc1c[nH]cn1)C(=O)N[C@@H](C)C(=O)N[C@@H](Cc1c[nH]c2ccccc12)C(=O)N[C@H](C(=O)N1CCC[C@H]1C(=O)O)C(C)C [wild-type peptide] (H-ALWPPNLHAWVP-OH)	clearly indicated cell penetrating potential
LPPAPWNWAHVL [scrambled mutant]	clearly indicated cell penetrating potential
PVWAHLNPPWLA [reverse mutant]	clearly indicated cell penetrating potential
